Assay results from patent US20240279236A1, “COMPOUNDS AND METHODS OF TREATING TUBERCULOSIS” (Fimbrion Therapeutics, Inc., priority 2021, published 2024).

System: WT Mtb Erdman strain
Test: Microplate Alamar Blue Assay (MABA), Mtb growth inhibition
Format: cell-based, Mycobacterium tuberculosis
Conditions: Mycobacterium tuberculosis, ERDMAN, 168 h, Middlebrook 7H9 media, 7 days at 37° C. in 5% CO2

SMILES | IC50 [nM]
CCc1nc(NCCCc2ccc(-c3ccc(Cl)c(Cl)c3)cc2)c2cc(C)sc2n1 [Example 281, N-(3-(3′,4′-dichloro-[1,1′-biphenyl]-4-yl)propyl)-2-ethyl-6-methylthieno[2,3-d]pyrimidin-4-amine] | 44
Cc1cc2c(NCCCc3ccc(-c4ccc(Cl)cc4)cc3)nc(C(F)(F)F)nc2s1 [Example 282, N-(3-(4′-chloro-[1,1′-biphenyl]-4-yl)propyl)-6-methyl-2-(trifluoromethyl) thieno[2,3-d]pyrimidin-4-amine] | 130
CCc1nc(NCCCc2ccc(-c3cccc(S(C)(=O)=O)c3)cc2)c2cc(C)sc2n1 [Example 283, 2-ethyl-6-methyl-N-(3-(3′-(methylsulfonyl)-[1,1′-biphenyl]-4-yl)propyl)thieno [2,3-d]pyrimidin-4-amine] | 3200
CCc1nc(NCCCc2ccc(-c3cccc(C(=O)NC)c3)cc2)c2cc(C)sc2n1 [Example 284, 4′-(3-((2-ethyl-6-methylthieno[2,3-d]pyrimidin-4-yl)amino)propyl) N-methyl-[1,1′-biphenyl]-3-carboxamide] | 2900
Cc1cc2c(NCCCc3ccc(-c4ccc(OC(F)(F)F)cc4)cc3)nc(-c3ccc(OC(F)(F)F)cc3)nc2s1 [Example 285, 6-methyl-N-(3-(4′-(trifluoromethoxy)-[1,1′-biphenyl]-4-yl)propyl)-2-(4-(trifluoromethoxy)phenyl)thieno [2,3-d]pyrimidin-4-amine] | > 10000
Cc1cc2c(NCCCc3ccc(-c4ccc(OC(F)(F)F)cc4)cc3)nc(-c3ccccn3)nc2s1 [Example 286, 6-methyl-2-(pyridin-2-yl)-N-(3-(4′-(trifluoromethoxy)-[1,1′-biphenyl]-4-yl)propyl)thieno [2,3-d]pyrimidin-4-amine] | 130
Cc1cc2c(NCCCc3ccc(-c4ccc(F)c(F)c4)cc3)nc(C(F)(F)F)nc2s1 [Example 287, N-(3-(3′,4′-difluoro-[1,1′-biphenyl]-4-yl)propyl)-6-methyl-2-(trifluoromethyl) thieno[2,3-d]pyrimidin-4-amine] | 190
COc1ccc(-c2ccc(CCCNc3nc(C(F)(F)F)nc4sc(C)cc34)cc2)cc1 [Example 288, N-(3-(4′-methoxy-[1,1′-biphenyl]-4-yl)propyl)-6-methyl-2-(trifluoromethyl) thieno[2,3-d]pyrimidin-4-amine] | 310
CSc1nc(NCCCc2ccc(-c3ccc(OC(F)(F)F)cc3)cc2)c2cc(C)sc2n1 [Example 289, 6-methyl-2-(methylthio)-N-(3-(4′-(trifluoromethoxy)-[1,1′-biphenyl]-4-yl)propyl)thieno [2,3-d]pyrimidin-4-amine] | 8
Cc1cc2c(NCCCc3ccc(-c4ccc(Cl)c(Cl)c4)cc3)nc(C(F)(F)F)nc2s1 [Example 290, N-(3-(3′,4′-dichloro-[1,1′-biphenyl]-4-yl)propyl)-6-methyl-2-(trifluoromethyl) thieno[2,3-d]pyrimidin-4-amine] | 390
Cc1cc2c(NCCCc3ccc(-c4ccc(OC(F)(F)F)cc4)cc3)nc(-c3ccoc3)nc2s1 [Example 291, 2-(furan-3-yl)-6-methyl-N-(3-(4′-(trifluoromethoxy)-[1,1′-biphenyl]-4-yl)propyl)thieno [2,3-d]pyrimidin-4-amine] | 8
CSc1nc(NCCCc2ccc(-c3ccc(OC(F)(F)F)cc3)cc2)c2nc(C)sc2n1 [Example 292, 2-methyl-5-(methylthio)-N-(3-(4′-(trifluoromethoxy)-[1,1′-biphenyl]-4-yl)propyl)thiazolo [5,4-d]pyrimidin-7-amine] | 16
Cc1cc2c(NCCCc3ccc(-c4cccnc4)cc3)nc(C(F)(F)F)nc2s1 [Example 293, 6-methyl-N-(3-(4-(pyridin-3-yl)phenyl)propyl)-2-(trifluoromethyl) thieno [2,3-d]pyrimidin-4-amine] | 2500
Cc1nc2c(NCCCc3ccc(-c4ccc(OC(F)(F)F)cc4)cc3)nc(-c3ccoc3)nc2s1 [Example 294, 5-(furan-3-yl)-2-methyl-N-(3-(4′-(trifluoromethoxy)-[1,1′-biphenyl]-4-yl)propyl)thiazolo [5,4-d]pyrimidin-7-amine] | 89
Cc1cc2c(NCCCc3ccc(-c4ccc(OC(F)(F)F)cc4)cc3)nc(-c3ccc(F)cc3)nc2s1 [Example 295, 2-(4-fluorophenyl)-6-methyl-N-(3-(4′-(trifluoromethoxy)-[1,1′-biphenyl]-4-yl)propyl)thieno [2,3-d]pyrimidin-4-amine] | 400
FC(F)(F)Oc1ccc(-c2ccc(CCCNc3nc(C(F)(F)F)nc4sccc34)cc2)cc1 [Example 296, N-(3-(4′-(trifluoromethoxy)-[1,1′-biphenyl]-4-yl)propyl)-2-(trifluoromethyl) thieno[2,3-d]pyrimidin-4-amine] | 270
CCc1nc(NCCCc2ccc(-c3ccc(C(F)(F)F)nc3)cc2)c2cc(C)sc2n1 [Example 297, 2-ethyl-6-methyl-N-(3-(4-(6-(trifluoromethyl)pyridin-3-yl)phenyl)propyl) thieno[2,3-d]pyrimidin-4-amine] | 34
Cc1cc2c(NCCCc3ccc(-c4ccc(Cl)c(Cl)c4)cc3)nc(-c3ccoc3)nc2s1 [Example 298, N-(3-(3′,4′-dichloro-[1,1′-biphenyl]-4-yl)propyl)-2-(furan-3-yl)-6-methylthieno[2,3-d]pyrimidin-4-amine] | 26

SMILES | IC50 [nM]
CCc1nc(NCCCc2ccc(-c3ccc(N(C)C)cc3)cc2)c2cc(C)sc2n1 [Example 299, N-(3-(4′-(dimethylamino)-[1,1′-biphenyl]-4-yl)propyl)-2-ethyl-6-methylthieno[2,3-d]pyrimidin-4-amine] | 26
CCc1nc(NCCCc2ccc(-c3ccc(Cl)cc3Cl)cc2)c2cc(C)sc2n1 [Example 300, N-(3-(2′,4′-dichloro-[1,1′-biphenyl]-4-yl)propyl)-2-ethyl-6-methylthieno[2,3-d]pyrimidin-4-amine] | 76
CCc1nc(NCCCc2ccc(-c3ccc(Cl)c(F)c3)cc2)c2cc(C)sc2n1 [Example 301, N-(3-(4′-chloro-3′-fluoro-[1,1′-biphenyl]-4-yl)propyl)-2-ethyl-6-methylthieno[2,3-d]pyrimidin-4-amine] | 45
CCc1nc(NCCCc2ccc(-c3ccc(C4CC4)cc3)cc2)c2cc(C)sc2n1 [Example 302, N-(3-(4′-cyclopropyl-[1,1′-biphenyl]-4-yl)propyl)-2-ethyl-6-methylthieno[2,3-d]pyrimidin-4-amine] | 27
CCc1nc(NCCCc2ccc(-c3ccc(C#N)cc3)cc2)c2cc(C)sc2n1 [Example 303, 4′-(3-((2-ethyl-6-methylthieno[2,3-d]pyrimidin-4-yl)amino)propyl)-[1,1′-biphenyl]-4-carbonitrile] | 37
CCc1nc(NCCCc2ccc(-c3ccc(F)cc3)cc2)c2cc(C)sc2n1 [Example 304, 2-ethyl-N-(3-(4′-fluoro-[1,1′-biphenyl]-4-yl)propyl)-6-methylthieno[2,3-d]pyrimidin-4-amine] | 40
CCc1nc(NCCCc2ccc(-c3ccc(OC4CC4)cc3)cc2)c2cc(C)sc2n1 [Example 305, N-(3-(4′-cyclopropoxy-[1,1′-biphenyl]-4-yl)propyl)-2-ethyl-6-methylthieno[2,3-d]pyrimidin-4-amine] | 57
CCc1nc(NCCCc2ccc(-c3ccc(OC(F)(F)F)c(F)c3)cc2)c2cc(C)sc2n1 [Example 306, 2-ethyl-N-(3-(3′-fluoro-4′-(trifluoromethoxy)-[1,1′-biphenyl]-4-yl)propyl)-6-methylthieno[2,3-d]pyrimidin-4-amine] | 47
CCc1nc(NCCCc2ccc(-c3c(Cl)cccc3Cl)cc2)c2cc(C)sc2n1 [Example 307, N-(3-(2′,6′-dichloro-[1,1′-biphenyl]-4-yl)propyl)-2-ethyl-6-methylthieno[2,3-d]pyrimidin-4-amine] | 830
CCc1nc(NCCCc2ccc(-c3cc(Cl)cc(Cl)c3)cc2)c2cc(C)sc2n1 [Example 308, N-(3-(3′,5′-dichloro-[1,1′-biphenyl]-4-yl)propyl)-2-ethyl-6-methylthieno[2,3-d]pyrimidin-4-amine] | 240
CCc1nc(NCCCc2ccc(-c3ccc(F)c(Cl)c3)cc2)c2cc(C)sc2n1 [Example 309, N-(3-(3′-chloro-4′-fluoro-[1,1′-biphenyl]-4-yl)propyl)-2-ethyl-6-methylthieno[2,3-d]pyrimidin-4-amine] | 100
CCc1nc(NCCCc2ccc(-c3cc(Cl)ccc3Cl)cc2)c2cc(C)sc2n1 [Example 310, N-(3-(2′,5′-dichloro-[1,1′-biphenyl]-4-yl)propyl)-2-ethyl-6-methylthieno[2,3-d]pyrimidin-4-amine] | 380
CCc1nc(NCCCc2ccc(-c3ccc(C(F)(F)F)cc3)cc2)c2cc(C)sc2n1 [Example 311, 2-ethyl-6-methyl-N-(3-(4′-(trifluoromethyl)-[1,1′-biphenyl]-4-yl)propyl)thieno [2,3-d]pyrimidin-4-amine] | 27
Cc1cc2c(NCCCCc3ccc(-c4ccc(OC(F)(F)F)cc4)cc3)nc(-c3ccoc3)nc2s1 [Example 312, 2-(furan-3-yl)-6-methyl-N-(4-(4′-(trifluoromethoxy)-[1,1′-biphenyl]-4-yl)butyl)thieno [2,3-d]pyrimidin-4-amine] | 380
Cc1cc2c(NCCCc3ccc(-c4ccc(OC(F)(F)F)cc4)cc3F)nc(-c3ccoc3)nc2s1 [Example 313, N-(3-(3-fluoro-(trifluoromethoxy)-[1,1′-biphenyl]-4-′-yl)propyl)-2-(furan-3-yl)-6-methylthieno[2,3-d]pyrimidin-4-amine] | 50
Cc1cc2c(NCCCc3ccc(-c4ccc([N+](=O)[O-])cc4)cc3)nc(N(C)C)nc2s1 [Example 314, N2,N2,6-trimethyl-N4-(3-(4′-nitro-[1,1′-biphenyl]-4-yl)propyl)thieno [2,3-d]pyrimidine-2,4-diamine] | 3
Cc1cc2c(NCCCc3ccc(-c4ccc(OC(F)(F)F)cc4)c(F)c3)nc(-c3ccoc3)nc2s1 [Example 315, N-(3-(2-fluoro-4′-(trifluoromethoxy)-[1,1′-biphenyl]-4-yl)propyl)-2-(furan-3-yl)-6-methylthieno[2,3-d]pyrimidin-4-amine] | 12
